Data as given in US8883856B2, “Compositions and methods for the treatment of inflammatory diseases using topoisomerase inhibitors” (priority 2000, dated 2014).
pIC50: −log10 of the molar value. Like-named read-outs stand apart in the source and are kept apart here.

How the values were obtained:
[1] = tested on: synoviocytes (HIG.82 rabbit); assay: MTT proliferation/cytotoxicity assay, synoviocytes; assay type: cell-based; conditions: Oryctolagus cuniculus, read-out: inhibitory concentration that gave 50% effect on proliferation (IC50), synoviocytes
Description: (§1) Proliferation was determined using the MTT proliferation/cytotoxicity assay.
(§2) On day one, 1500-2000 smooth muscle cells (A7r5 rat embryonic thoracic aorta) or synoviocytes (HIG.82 rabbit) were plated per well on a 96-well plate, leaving the first column free of cells (blank). The plate was placed back into the 37° C., CO2 incubator. The following day camptothecin was added at various concentrations. No drugs were added to the first column (blank) and the second column (untreated column) for control. The cells were exposed for 24, 48, and 72 hours. At the end of the exposure period, 50 μl of dimethylthiazol diphenyltetrazolium bromide salt (MTT) dissolved in media was added and allowed to incubate for 4 hours at 37° C. The medium was then aspirated and 200 μl of dimethyl sulfoxide was added. The plate was agitated for 30 minutes and the absorbance read at 562 nm. The optical density measurement was converted to number of cells using a standard plot of optical density with known number of cells and cell viability was expressed as % growth (this value is the % of the control cells).

[2] = tested on: smooth muscle cells (A7r5 rat embryonic thoracic aorta); assay: MTT proliferation/cytotoxicity assay, smooth muscle cells; assay type: cell-based; conditions: read-out: inhibitory concentration that gave 50% effect on proliferation (IC50), smooth muscle cells
Description: as §1, §2

[3] = In vitro drug release from polymeric formulations; assay type: physicochemical
collagenase gene = assay: IL-1 induced collagenase gene expression in chondrocytes; assay type: cell-based, calf
Text: (§3) This assay measures the levels of RNA for the two metalloproteinases, collagenase and stromelysin. Over-expression of these genes results in excessive synthesis and secretion of these two enzymes from articular chondrocytes and may represent part of the pathophysiology of rheumatoid arthritis. Agents that inhibit over-expression of collagenase and stromelysin can be antiarthritc agents. […] Proteoglycan gene expression is part of the normal physiology of chondrocytes.
(§4) Primary chondrocyte culture was freshly isolated from calf cartilage. The cells were plated (at 2.5×10^6/mL) in 100×20 mm culture dishes and incubated in Ham's F12 medium containing 5% fetal bovine serum (FBS) overnight at 37° C. The cells were starved with serum-free medium overnight. […] Then IL-1 (20 ng/mL) was added to each plate and the plates were incubated for an additional 18 hours. Total RNA was isolated by the acidified guanidine isothiocyanate method and subjected to electrophoresis on a denatured gel. Denatured RNA samples (15 ug) were analyzed by gel electrophoresis in a 1% denaturing gel, transferred to a nylon membrane, and hybridized respectively with the ^32P-labelled collagenase cDNA probe, ^32P-labelled stromelycin cDNA probe, ^32P-labelled proteoglycan cDNA probe and ^32P-labelled glyceraldehyde phosphate dehydrogenase (PAGDH) cDNA. The PAGDH levels acted as an internal standard to ensure roughly equal loading. The experimental results on X-ray films were scanned and analyzed with HP ScanJet.

stromelycin gene = assay: IL-1 induced stromelycin gene expression in chondrocytes; assay type: cell-based, calf; conditions: for stromelysin expression: 1×10^−6 M
Text: as §3, §4

human neutrophils = assay: Neutrophil chemiluminescence (neutrophil activation); assay type: cell-based
Description: Freshly prepared human neutrophils were incubated with the compound followed by stimulation of the cells with either plasma opsonized CPPD crystals, the bacterial chemoattractant, fMLP or the phorbol ester, PMA. Stimulation (or activation) of the cells induced superoxide anion generation which could be measured by the emission of light (chemiluminescence). Inhibition of neutrophil function was then determined by inhibition of chemiluminescence. Hanks buffered salt solution (HBSS) pH 7.4 was used throughout the study. All chemicals were purchased from Sigma Chemical Co. (St. Louis, Mo.) unless otherwise stated. All procedures were performed at 37° C. unless otherwise stated. CPPD (triclinic) crystals were prepared and characterized as previously reported (Jackson J K et al., J Rheumatol, 24: 341-348, 1996). The size distribution of the crystals was approximately 33% less than […]. Opsonization of crystals was carried out using 50% heparinized plasma and concentrations of 50 mg of CPPD in 1 mL of 50% plasma. Crystals were incubated with diluted plasma for 30 min at 37° C., centrifuged at 1000×g, then washed in HBSS and recentrifuged. Neutrophils were prepared from freshly collected, human, citrated whole blood. Briefly, 400 mL of blood were mixed with 80 mL of 4% dextran T500 (Pharmacia LKB, Biotechnology AB Uppsala, Sweden) in HBSS and allowed to settle for 1 h. Plasma was collected continuously and 5 mL applied to 5 mL Ficoll Paque (Pharmacia) in 15 mL polypropylene tubes (Corning, N.Y.). Following centrifugation at 500×g for 30 min, the neutrophil pellets were washed free of erythrocytes by 20 s of hypotonic shock. Neutrophils were resuspended in HBSS, kept on ice and used for experiments within 3 h. Neutrophil viability and purity was always greater than 90%.
A stock solution of drug was diluted in DMSO to give various concentrations of drug. Equal volumes of these solutions were added to neutrophils at 5×10^6 cells per mL under mild vortexing to achieve final concentrations with a final DMSO concentration of 0.25%. This DMSO concentration found to have no effect on control cell responses. Cells were incubated for 15 minutes at 37° C. before addition to crystals, fMLP or PMA.
Chemiluminescence studies were performed at a cell concentration of 5×10^6 cells per mL in HBSS with CPPD (50 mg/mL). In all experiments 0.5 mL of cells were added to 25 mg of CPPD or 1 uM fMLP (and 0.5 uM cytochalasin B) or 0.5 uM PMA in 1.5 ml Eppendorf tubes. To the tubes were added 10 uL of luminol dissolved in 25% DMSO in HBSS to give a final concentration of 1 μM and the samples were mixed to initiate neutrophil activation. Chemiluminescence was monitored using an LKB Luminometer (Model 1250) at 37° C. with shaking immediately prior to measurements to resuspend the crystals. Control tubes contained cells, drug and luminol (crystals absent).

[4] = chitosan films, PBS pH 7.4, 37° C.
[5] = ethylene vinyl acetate films, PBS pH 7.4, 37° C.
[6] = poly(L-lactic acid) microspheres, PBS pH 7.4, 37° C.
[7] = polycaprolactone paste, PBS, 37° C.
[8] = triblock copolymer/MePEG paste, PBS pH 7.4 with n-octanol, 37° C.
[9] = polycaprolactone microspheres, PBS pH 7.4, 37° C.
[10] = Homo sapiens, Neutrophil, three agonists: CPPD crystals, fMLP, PMA, read-out: IC 50, inhibition of neutrophil chemiluminescence

| Structure (SMILES) | pIC50 ([1]; 48 h) | pIC50 ([2]; A7R5, 48 h) | effect of addition of MePEG to the PCL on release rate ([3]; 10% and 20% camptothecin loaded PCL paste, 20% MePEG) | drug release profile [3, 4] | drug release profile [3, 5] | drug release profile [3, 6] | drug release profile [3, 7] | drug release profile [3, 8] | IL-1 induced collagenase gene expression (collagenase gene; 1×10^−7 M) | IL-1 induced stromelycin gene expression (stromelycin gene; 1×10^−7 M) | inhibition of neutrophil chemiluminescence (human neutrophils; concentration printed as (5%)) [%] | pIC50 ([1]; 48 hours exposure) | pIC50 ([2]; A7R5, 48 hours exposure) | drug release profile [3, 9] | IL-1 induced collagenase gene expression (collagenase gene; 1×10^−5 M) | IL-1 induced stromelycin gene expression (stromelycin gene; 1×10^−5 M) | stromelysin expression (stromelycin gene) | IC50 (human neutrophils; [10]) [µg/mL] | pIC50 (human neutrophils; [10]) | inhibition at 10 µM (human neutrophils; Homo sapiens, Neutrophil) [%] | IC50 (human neutrophils; Homo sapiens, Neutrophil, activation by MSUM crystals, read-out: IC 50, inhibition of neutrophil chemiluminescence) [µg/mL] |
| --- | --- | --- | --- | --- | --- | --- | --- | --- | --- | --- | --- | --- | --- | --- | --- | --- | --- | --- | --- | --- | --- |
| CC[C@@]1(O)C(=O)OCc2c1cc1n(c2=O)Cc2cc3ccccc3nc2-1 [camptothecin] | 7.19 | 5.80 | accelerated the release rate | initial burst of drug release followed by a slow sustained release | initial burst of drug release followed by a slow sustained release | initial burst of drug release followed by a slow sustained release | initial burst of drug release followed by a slow sustained release | initial burst of drug release followed by a slow sustained release | almost completely inhibited | almost completely inhibited | 2 |  |  |  |  |  |  |  |  |  |  |
| CC1=CC(=O)c2c(O)cccc2C1=O [plumbagin] |  |  |  | initial burst of drug release followed by a slow sustained release | initial burst of drug release followed by a slow sustained release | initial burst of drug release followed by a slow sustained release | initial burst of drug release followed by a slow sustained release | initial burst of drug release followed by a slow sustained release |  |  |  | 5.44 | 5.59 | initial burst of drug release followed by a slow sustained release | completely inhibited | completely inhibited | partial inhibition | < 1 |  |  |  |
| CC1(C)CCC2=C(O1)c1ccccc1C(=O)C2=O [beta-lapachone] |  |  |  |  | initial burst of drug release followed by a slow sustained release |  | initial burst of drug release followed by a slow sustained release |  |  |  |  | 5.25 | 5.20 |  | almost completely inhibited | almost completely inhibited |  |  | 5.00 to 6.00 |  |  |
| COc1cc([C@@H]2c3cc4c(cc3[C@@H](O[C@@H]3O[C@@H]5CO[C@@H](C)O[C@H]5[C@H](O)[C@H]3O)[C@H]3COC(=O)[C@H]23)OCO4)cc(OC)c1O [etoposide] |  |  |  |  | initial burst of drug release followed by a slow sustained release |  | initial burst of drug release followed by a slow sustained release |  |  |  |  | ~4.82 | ~4.82 |  | inhibited | inhibited |  |  |  | 25 |  |
| CC1=CC(=O)c2ccccc2C1=O [menadione] |  |  |  |  |  |  | initial burst of drug release followed by a slow sustained release |  |  |  |  | 4.82 | 5.09 | initial burst of drug release followed by a slow sustained release | inhibited | inhibited |  |  |  |  | 0.5 to 1 |
| COc1cccc2c1C(=O)c1c(O)c3c(c(O)c1C2=O)C[C@@](O)(C(=O)CO)C[C@@H]3O[C@H]1C[C@H](N)[C@H](O)[C@H](C)O1 [doxorubicin] |  |  |  |  | initial burst of drug release followed by a slow sustained release |  | initial burst of drug release followed by a slow sustained release |  |  |  |  | 7.00 | 6.22 |  | completely inhibited | completely inhibited | partial inhibition |  |  | 13 |  |
